Measurements: patent US20250314644A1, “METHODS COMPRISING DETECTION OF ADP-HEPTOSE” (CHILDREN'S HOSPITAL MEDICAL CENTER, priority 2023, published 2025)

Assays:
Assay type in all cases: in vivo, mouse
[1] = Quantification of bacterial DNA (16S) in blood by real-time PCR; conditions: DSS-induced intestinal barrier dysfunction in mice
Text: The previously described protocol to examine bacterial translocation into blood was used. (Luo, Z., et al. CRIg(+) Macrophages Prevent Gut Microbial DNA-Containing Extracellular Vesicle-Induced Tissue Inflammation and Insulin Resistance. Gastroenterology 160, 863-874 (2021); Tabuchi, Y., et al. Oral dextran sulfate sodium administration induces peripheral spondyloarthritis features in SKG mice accompanied by intestinal bacterial translocation and systemic Th1 and Th17 cell activation. Arthritis Res Ther 24, 176 (2022)) Whole blood was collected by cheek bleeding in sterile BD Microtainer Capillary Blood Collector and Microgard Closure tubes (Cat No. 13-680-62, Fisher Scientific) on ice from each mouse using Goldenrod Animal Lancets 4 mm (Cat No. NC9922361, Braintree Scientific), and genomic DNA extracted using DNeasy Blood & Tissue Kit (Cat No. 69504, Qiagen). qPCR was performed using Femto Bacterial DNA Quantification Kit (Cat. No. E2006, Zymo Research) according to the manufacturers' instructions. Samples with a Ct value more than 35 cycles or undetectable were counted as 0 μg/ml.

[2] = UHPLC-MS/MS measurement of ADP-heptose in plasma and BM; conditions: DSS-induced intestinal barrier dysfunction in mice
Protocol: To measure ADP-heptose, lysates were prepared as described previously. (Gaudet, R. G., et al. INNATE IMMUNITY. Cytosolic detection of the bacterial metabolite HBP activates TIFA-dependent innate immunity. Science 348, 1251-1255 (2015).) Briefly, bacterial culture suspensions of various mouse tissues and human plasma samples were first spun at 4000 g for 5 minutes. Next, pellets were suspended in 1 ml of sterile water. Bacterial cells were then lysed by heating at 95° C. for 15 minutes. Next, lysates were centrifuged at 4000 g for 3 minutes and supernatants filtered through a 0.20 μm syringe filter using 1 ml syringe and needle. Finally, lysates were stored at −80° C. until further processing for Mass Spectrometry. Following a previously established protocol, lysates were prepared. (Pfannkuch, L., et al. ADP heptose, a novel pathogen-associated molecular pattern identified in Helicobacter pylori. FASEB J 33, 9087-9099 (2019).) Briefly, 500 μl of the cleared bacterial lysate was thawed from −80° C. and extracted by addition of 1 ml chloroform/methanol (v:v 2:1) and vortexed and centrifuged (5 min, 10,000 g). […]
The concentration of ADP-heptose was determined using an ultrahigh-performance liquid chromatography-electrospray ionization-mass spectrometry (UHPLC-ESI-MS/MS) method by modifying our previously described protocol. […]

Dnmt3a^−/− HSCs = assay: DSS gut injury in low-dose irradiated chimeric mice, with or without antibiotics pre-treatment
Text: To model pre-leukemic clonal hematopoiesis, chimeric mice were generated as aas follows. Briefly, mixture of 1×10^6 whole bone marrow cells (WBM) were obtained from Poly (I:C) treated wild-type (Dnmt3a^+/+; MxCre^+, called Dnmt3a^WT) or mutant mice (Dnmt3a^f/f; MxCre^+, called Dnmt3a^KO) or double mutant mice (Dnmt3a^f/f; MxCre^+; Alpk1^KO, called Dnmt3a^KO; Alpk1^KO) (CD45.2^+), and transplanted into low-dose (2.5 Gy) irradiated recipient mice (CD45.1^+; 6-10 weeks of age). 8 weeks post-transplant, chimeric mice were treated with either water (H2O) or DSS (2.5%) for 1 week, and allowed to recover for 1 more week on water after which flow cytometry was performed on BM. In separate experiment, chimeric mice were pre-treated with broad spectrum antibiotics (ABX) for 4 weeks, and then subjected to DSS for 1 week after which flow cytometry performed on BM. In a separate set of experiment, chimeric mice were treated with either H2O or ADP-heptose (0.5 mg/kg) for 2 weeks, and flow cytometry performed after 2 more weeks on BM. […]
Mice were treated with 2.5% DSS (wt/vol) (MW: 36,000-50,000 Da, Cat No. 216011090, MP Biomedicals) in autoclaved drinking water to induce gut injury-associated colitis as mentioned before. […] Mice were monitored daily for weight loss, stool consistency, and the presence of frank blood in the stool. […]

With dextran sulfate sodium [DSS] the “copies of 16S rRNA in the blood” value [1] was “increased copies”, the “ADP-heptose in BM and PB plasma by mass spectrometry” value [2] was “circulating ADP-heptose in the BM and PB plasma” and the “expansion of Dnmt3a^−/− HSCs in the BM” value (Dnmt3a^−/− HSCs) was “significant expansion”.
